Measurements as given in US20090036489A1, “Novel Cyclic Aminophenylalkanoic Acid Derivative” (priority 2005, published 2009).

Target: T1, human PPARα (Homo sapiens, UniProt Q07869)
T1 construct: expressed in transfected cells; host or cells: CHO-K1
T1 sequence (Q07869 239-466 limits assumed): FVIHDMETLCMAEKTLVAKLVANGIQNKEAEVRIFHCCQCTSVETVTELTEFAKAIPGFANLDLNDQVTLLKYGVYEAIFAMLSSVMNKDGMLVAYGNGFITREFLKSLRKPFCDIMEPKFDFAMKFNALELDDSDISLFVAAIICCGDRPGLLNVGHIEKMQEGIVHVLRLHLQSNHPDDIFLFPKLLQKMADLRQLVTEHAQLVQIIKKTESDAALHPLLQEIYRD
Assay: Activation of human PPARα: GAL4-PPARα LBD luciferase reporter transactivation in CHO-K1 cells
Format: cell-based
Conditions: CHO-K1 cells co-transfected with GAL4 DNA-binding domain/human PPARα ligand-binding domain fusion, firefly luciferase reporter normalized to Renilla; 20 hours with test compound
Source text: Activation of Human Peroxisome Proliferator-Activated Receptor α (PPARα)
CHO-K1 cells cultured in Ham's F12 medium supplemented with 10% fetal calf serum (FCS) were co-transfected with a receptor-expression plasmid engineered to express a fusion protein in which the DNA-binding domain of yeast transcription factor GAL4 is fused to the ligand-binding domain of human PPARα (Biochemistry, 1993, 32, 5598), a reporter plasmid (firefly luciferase reporter plasmid, STRATAGENE) and a Renilla luciferase reporter plasmid as an internal control. The plasmids were co-transfected for 2 hours in serum-free medium using Lipofectamine (Invitrogen). Subsequently, the cells were cultured at 37° C. for 20 hours in Ham's F12 medium supplemented with 10% defatted bovine serum and a test compound. The activity of the two luciferases was then measured and firefly luciferase activity was normalized to the internal control Renilla luciferase activity.

EC50 [nM] | Compound
45 | Cc1nc(-c2ccc(Cl)cc2)sc1C(=O)NCC1CCCN(c2cccc(CC(=O)O)c2)C1 (stereo not shown) [Example 9, 3-[3-[[2-(4-chlorophenyl)-4-methylthiazol-5-yl]carbonylaminomethyl]piperidin-1-yl]phenylacetic acid]
0.1 | Cc1nc(-c2ccc(Cl)cc2)sc1C(=O)NCC1CCCN(c2ccccc2CC(=O)O)C1 (stereo not shown) [Example 8, 2-[3-[[2-(4-chlorophenyl)-4-methylthiazol-5-yl]carbonylaminomethyl]piperidin-1-yl]phenylacetic Acid]
37 | Cc1nc(-c2ccc(Cl)cc2)sc1C(=O)NC1CCCN(c2cccc(CC(=O)O)c2)C1 (stereo not shown) [Example 11, 3-[3-[[2-(4-chlorophenyl)-4-methylthiazol-5-yl]carbonylamino]piperidin-1-yl]phenylacetic acid]
67 | Cc1nc(-c2ccc(Cl)cc2)sc1C(=O)NC1CCCN(c2cccc(OC(C)(C)C(=O)O)c2)C1 (stereo not shown) [Example 14, 2-[3-[3-[[2-(4-chlorophenyl)-4-methylthiazol-5-yl]carbonylamino]piperidin-1-yl]phenoxy]-2-methylpropionic acid]
